Test results published in PMC10288853 (Frontiers in Oncology, 2023).
“And” between values parts separate entries of the source, which are not always exact repeats. Equal entries are not always repeated. Each block holds one compound with its values, some of them ahead of it.

Legend:
[1] = system: patients with metastatic uveal melanoma; test: Safety and tolerability: adverse events in phase Ib patients; conditions: given in the combination, all patients
[2] = human, in vivo
[3] = Plasma pharmacokinetics by LC-MS/MS; conditions: for AUC(0-t) / Cmax / Tmax: human, plasma, oral; for Cmax: Median Cmax [Min; for Tmax: Median Tmax [Min
clinical = conditions: human, in vivo, median AUC0-8hr of sotrastaurin
[4] = system: metastatic uveal melanoma; set-up: method as in PMID 34551229, PMID 35254876; conditions: previously untreated HLA-A*0201 positive patients, versus best alternative care; ref [6], [7]; cited from earlier work
[5] = b.i.d. dosing in combination with sotrastaurin
[6] = Max], plasma binimetinib, 2nd section, Cycle 1 Day 1 (C1D1), Dose Level 1: AEB071 150 mg bid and MEK162 45 mg bid
[7] = Max], plasma binimetinib, 2nd section, Cycle 1 Day 1 (C1D1), Dose Level 3: AEB071 300 mg bid and MEK162 30 mg bid
[8] = Max], plasma binimetinib, 2nd section, Cycle 1 Day 1 (C1D1), Dose Level 4: AEB071 300 mg bid and MEK162 45 mg bid
[9] = Max], plasma binimetinib, 2nd section, Cycle 1 Day 1 (C1D1), Dose Level 5: AEB071 350 mg bid and MEK162 30 mg bid
[10] = Max], plasma binimetinib, 2nd section, Cycle 1 Day 1 (C1D1), Dose Level 6: AEB071 400 mg bid and MEK162 30 mg bid
[11] = Max], plasma binimetinib, Cycle 1 Day 1 (C1D1), Dose Level 1: AEB071 150 mg bid and MEK162 45 mg bid
[12] = Max], plasma binimetinib, Cycle 1 Day 1 (C1D1), Dose Level 2: AEB071 200 mg bid and MEK162 45 mg bid
[13] = Max], plasma binimetinib, Cycle 1 Day 1 (C1D1), Dose Level 3: AEB071 300 mg bid and MEK162 30 mg bid
[14] = Max], plasma binimetinib, Cycle 1 Day 1 (C1D1), Dose Level 4: AEB071 300 mg bid and MEK162 45 mg bid
[15] = Max], plasma binimetinib, Cycle 1 Day 1 (C1D1), Dose Level 5: AEB071 350 mg bid and MEK162 30 mg bid
[16] = Max], plasma binimetinib, Cycle 1 Day 1 (C1D1), Dose Level 6: AEB071 400 mg bid and MEK162 30 mg bid

Compound: CN1CCN(c2nc(C3=C(c4c[nH]c5ccccc45)C(=O)NC3=O)c3ccccc3n2)CC1 [sotrastaurin]
Dose reductions applied [1]: 76.3% | median RACC, range at different doses of sotrastaurin [2]: 0.72-1.15 | accumulation of sotrastaurin following b.i.d. dosing ([3]; exposure on day 15 compared with day 1): no observed accumulation | AUC(0-t) (clinical; 150 mg): 6070 ng·h/mL | AUC(0-t) (clinical; 400 mg): 21600 ng·h/mL

median RACC of binimetinib, other three dose levels lower than or close to 1 [3, 5]: 0.76 and 0.78 and 1.08 | median RACC of binimetinib, three dose levels much higher than 1 [3, 5]: 1.34 and 1.42 and 1.54 | AUC(0-t) ([3]; 30 mg, median AUC0-8hr range of binimetinib, cycle 1 day 15, binimetinib 30 mg b.i.d. with varying doses of sotrastaurin): 1210 to 1450 ng·h/mL | AUC(0-t) ([3]; 45 mg, median AUC0-8hr range of binimetinib, cycle 1 day 15, binimetinib 45 mg b.i.d. with varying doses of sotrastaurin): 1480 to 2140 ng·h/mL | AUC(0-t) ([3]; Median AUC0–8hr [Min, Max], plasma binimetinib, 2nd section, Cycle 1 Day 1 (C1D1), Dose Level 1: AEB071 150 mg bid and MEK162 45 mg bid): 2000 ng·h/mL | AUC(0-t) ([3]; Median AUC0–8hr [Min, Max], plasma binimetinib, 2nd section, Cycle 1 Day 1 (C1D1), Dose Level 3: AEB071 300 mg bid and MEK162 30 mg bid): 1210 ng·h/mL | AUC(0-t) ([3]; Median AUC0–8hr [Min, Max], plasma binimetinib, 2nd section, Cycle 1 Day 1 (C1D1), Dose Level 4: AEB071 300 mg bid and MEK162 45 mg bid): 1480 ng·h/mL | AUC(0-t) ([3]; Median AUC0–8hr [Min, Max], plasma binimetinib, 2nd section, Cycle 1 Day 1 (C1D1), Dose Level 5: AEB071 350 mg bid and MEK162 30 mg bid): 1250 ng·h/mL | AUC(0-t) ([3]; Median AUC0–8hr [Min, Max], plasma binimetinib, 2nd section, Cycle 1 Day 1 (C1D1), Dose Level 6: AEB071 400 mg bid and MEK162 30 mg bid): 1450 ng·h/mL | AUC(0-t) ([3]; Median AUC0–8hr [Min, Max], plasma binimetinib, Cycle 1 Day 1 (C1D1), Dose Level 1: AEB071 150 mg bid and MEK162 45 mg bid): 1540 ng·h/mL | AUC(0-t) ([3]; Median AUC0–8hr [Min, Max], plasma binimetinib, Cycle 1 Day 1 (C1D1), Dose Level 2: AEB071 200 mg bid and MEK162 45 mg bid): 1550 ng·h/mL | AUC(0-t) ([3]; Median AUC0–8hr [Min, Max], plasma binimetinib, Cycle 1 Day 1 (C1D1), Dose Level 3: AEB071 300 mg bid and MEK162 30 mg bid): 1130 ng·h/mL | AUC(0-t) ([3]; Median AUC0–8hr [Min, Max], plasma binimetinib, Cycle 1 Day 1 (C1D1), Dose Level 4: AEB071 300 mg bid and MEK162 45 mg bid): 1610 ng·h/mL | AUC(0-t) ([3]; Median AUC0–8hr [Min, Max], plasma binimetinib, Cycle 1 Day 1 (C1D1), Dose Level 5: AEB071 350 mg bid and MEK162 30 mg bid): 1260 ng·h/mL | AUC(0-t) ([3]; Median AUC0–8hr [Min, Max], plasma binimetinib, Cycle 1 Day 1 (C1D1), Dose Level 6: AEB071 400 mg bid and MEK162 30 mg bid): 985 ng·h/mL | Cmax [3, 6]: 493 ng/mL | Cmax ([3]; Max], plasma binimetinib, 2nd section, Cycle 1 Day 1 (C1D1), Dose Level 2: AEB071 200 mg bid and MEK162 45 mg bid): 410 ng/mL | Cmax [3, 7]: 246 ng/mL | Cmax [3, 8]: 391 ng/mL | Cmax [3, 9]: 280 ng/mL | Cmax [3, 10]: 346 ng/mL | Cmax [3, 11]: 366 ng/mL | Cmax [3, 12]: 450 ng/mL | Cmax [3, 13]: 213 ng/mL | Cmax [3, 14]: 370 ng/mL | Cmax [3, 15]: 259 ng/mL | Cmax [3, 16]: 279 ng/mL | Tmax [3, 6]: 2 h | Tmax [3, 7]: 3 h | Tmax [3, 8]: 2.9 h | Tmax [3, 9]: 1.9 h | Tmax [3, 10]: 1.5 h | Tmax [3, 11]: 1.1 h | Tmax [3, 12]: 1.1 h | Tmax [3, 13]: 2 h | Tmax [3, 14]: 4 h | Tmax [3, 15]: 2 h | Tmax [3, 16]: 1.1 h | Median AUC0–8hr [Min; Max] ([3]; plasma binimetinib, 2nd section, Cycle 1 Day 1 (C1D1), Dose Level 2: AEB071 200 mg bid and MEK162 45 mg bid): 2137.7 [1121.6; 2772.3] hr*ng/ml
Compound: Cn1cnc2c(F)c(Nc3ccc(Br)cc3F)c(C(=O)NOCCO)cc21 [binimetinib]
Dose reductions applied [1]: 65.8%

Compound: tebentafusp: agent improving overall survival in previously untreated HLA-A*0201 positive metastatic uveal melanoma patients
hazard ratio for death [4]: 0.51 | reduction in the risk of death [4]: 49%
